The values below are quoted from earlier work in patent publication EP3959200B1, “NEW TRIAZOLE AND TRIAZOLOTHIADIAZINE DERIVATIVES EXERTING CYTOTOXIC AND APOPTOTIC EFFECTS ON A549 CELLS THROUGH AKT INHIBITION” (Anadolu Universitesi, priority 2020, dated 2022).

Like-named read-outs stand apart in the source and are kept apart here. Some results are limits rather than exact numbers.

In series [1] the test system is human cervical carcinoma (HeLa). The following applies: cited from earlier work.
The test system of series [2] is breast adenocarcinoma (MCF-7). The conditions noted are these: MCF-7, MTT; read-out: LC50 (the source's name); cited from earlier work.
For series [3], the system named is colon carcinoma (HCT116). The conditions noted are these: HCT116, MTT; read-out: LC50 (the source's name); cited from earlier work.
For series [4], the system named is human HCC (HepG2) cell line. The following applies: cited from earlier work.
Series [5] concerns human epithelial cervical carcinoma (HeLa) cells. The following applies: MTT; cited from earlier work.
Series [6] has as its system human lung cancer (A549). The following applies: cited from earlier work.
Series [7] relates to PC-3 cells. The conditions noted are these: cited from earlier work.
The test system of series [8] is human lung adenocarcinoma (A549). The following applies: cited from earlier work.
Series [9] relates to breast adenocarcinoma (MCF-7). The conditions noted are these: cited from earlier work.
Series [10] concerns ovarian carcinoma (SKOV3). The following applies: cited from earlier work.
For series [11], the system named is tubulin. The conditions noted are these: tubulin polymerization; cited from earlier work.
Series [12] deals with HCC rats. The conditions noted are these: cited from earlier work.
Series [13] has as its system human hepatocellular carcinoma (HCC) cell line (HepG2). The following applies: HepG2, MTT; cited from earlier work.
The test system of series [14] is human gastric cancer (NUGC), human liver cancer (HA22T and HepG2), nasopharyngeal cancer (HONE1), human breast cancer (MCF). The conditions noted are these: all other cancer cells tested except DLD1 cells; cited from earlier work.
Series [15] has as its system normal fibroblast (WI38) cells. The conditions noted are these: cited from earlier work.
Series [16] has as its target alkaline phosphatase (ALP) enzyme. The following applies: cited from earlier work.
For series [17], the system named is human breast cancer (MCF-7). The conditions noted are these: cited from earlier work.
In series [18] the test system is human breast cancer (MCF-7). The following applies: cited from earlier work. This is another data set of the same source.
Series [19] has as its system K562 cells. The conditions noted are these: cited from earlier work.
Series [20] has as its system kidney fibroblast (BHK-21) cells. The conditions noted are these: cited from earlier work.
For series [21], the system named is lung cancer (H157) cells. The following applies: cited from earlier work.
Series [22] relates to lung cancer (H-157) cell line. The conditions noted are these: cited from earlier work.
The test system of series [23] is leukemia (CCRF-CEM, RPMI-8226 and SR), non-small cell lung cancer (HOP-92), melanoma (UACC-62) and kidney cancer (UO-31) cells. The following applies: across CCRF-CEM, RPMI-8226, SR, HOP-92, UACC-62, UO-31; cited from earlier work.
For series [24], the system named is 60 cell lines derived from leukemia, non-small cell lung cancer, skin, ovarian, prostate and breast cancers. The following applies: all cancer types tested; cited from earlier work.
The subject of series [25] is leukemia (MOLT-4) cell line. The following applies: cited from earlier work.
Series [26] relates to kidney cancer (OU-31) cell line. Further details: concentration or dose not given beside the values. The following applies: cited from earlier work.
In series [27] the test system is A549. The following applies: cited from earlier work.
Series [28] relates to Ehrlich acid tumor (EAC). The conditions noted are these: 25 mg/kg, body weight; cited from earlier work.
In series [29] the test system is Huh7 cell line. The conditions noted are these: cited from earlier work.
The subject of series [30] is human colon epithelial cells (HT-29). The following applies: cited from earlier work.
Series [31] relates to 60 cell lines derived from lung, colon, skin, kidney, ovarian, central nervous system and blood cancers. The conditions noted are these: all cells tested; cited from earlier work.

As to `COc1cccc2c1C(=O)c1c(O)c3c(c(O)c1C2=O)C[C@@](O)(C(=O)CO)C[C@@H]3O[C@H]1C[C@H](N)[C@H](O)[C@H](C)O1` [doxorubicin], the results for the IC50 in series [1], in series [4] and in series [6] were 8.72 µM, 36.3 µM and 4.52 µM, respectively. Besides, the results for the CC50 in [2] and in series [3] were 26.1 µM and 37.7 µM, respectively. For the same compound, the EC50 (usually the concentration giving half of the maximal effect) in [5] was 2.5 µM.
`Cc1ccc(C(C)C)c(OCc2nnc(SCC(=O)Nc3ccc(S(N)(=O)=O)cc3)n2Cc2ccccc2)c1` [2-{ [3-[[5-Methyl-2-(propane-2-yl)phenoxy]methyl)-4-benzyl-4,5-dihydro-1H-1,2,4-triazole-5-yl]sulfanyl}-N-(4-sulfamoilphenyl)acetamide]: the IC50 (usually the point on the concentration scale where inhibition reaches its midpoint) in series [7] is 5.96 µM.
For `COc1cc(-c2nnc3n2N=C(c2ccc(Br)cc2)CS3)cc(OC)c1OC` [6-(4-bromophenyl)-3-(3,4,5-trimethoxyphenyl)-7H-[1,2,4]triazolo[3,4-b][1,3,4]thiadiazine], the IC50 was 3.15 ± 0.01 µM in series [8], 3.34 ± 0.02 µM in [9], 0.3 ± 0.65 µM in [10] and 1.03 µM in series [11].
For `O=C(CNNc1nnc2n1NC=C(c1ccccc1)S2)c1ccccc1` [1-phenyl-2-(2-(7-phenyl-5H-[1,2,4]triazolo[3,4-b][1,3,4]thiadiazine-3-yl)hydrazinyl)ethanone], in series [12], the “inhibition of hepatic tyrosine kinase (HTK) expression” value is on record as 45% and the “reduction of vascular endothelial growth factor (VEGF) level” value is reported as 30%. In addition, in [12] (compared to the HCC group), the “improvement of liver level of glutathione (GSH)” value was 99% and the “improvement of liver level of lipid peroxides” value was 62%. For the same compound, in series [4], the IC50 was 19.6 µM.
As to `S=c1[nH]nc(OCc2ccccc2)n1N=Cc1c[nH]nc1-c1ccc(Cl)cc1` [4-((3-(4-chlorophenyl)-1H-pyrazole-4-methylene)amino)-5-(benzyloxy)-2,4-dihydro-1,2,4-triazole-3-thione], the IC50 in series [13] is 0.018 µM.
`c1ccc(C2=Nn3c(nnc3-c3ccncc3)SC2)cc1` [6-phenyl-3-(pyridine-4-yl)-7H-[1,2,4]triazolo[3,4-b][1,3,4]thiadiazine]: the results for the IC50 in series [14] and in [15] were under 0.8 µM and over 10 µM, respectively.
As to `O=c1oc2ccccc2cc1C1=Nn2c(nnc2-c2cc3ccccc3oc2=O)SC1` [3,3'-(7/7-[1,2,4]Triazolo[3,4-b][1,3,4]thiadiazine-3,6-diyl)-bis(2H-chromen-2-one)], the half-inhibitory concentration (IC50) in [16] is 1.15 ± 1 µM.
`Cc1ccc(COc2nn(CN3CCOCC3)c(=S)n2N=Cc2c[nH]nc2-c2ccc(F)cc2)cc1` [4-((3-(4-fluorophenyl)-1H-pyrazole-4-methylene)amino)-2-(morpholinomethyl)-5-(4-methylbenzyloxy)-2,4-dihydro-1,2,4-triazole-3-thione]: the IC50 in [13] is 0.034 µM.
As for `COc1ccc(-n2nc(-c3nnc(SCCCO)n3-c3ccccc3)cc2-c2ccccc2)cc1` [3-((5-(1-(4-Methoxyphenyl)-5-phenyl-1H-pyrazole-3-yl)-4-phenyl-4H-1,2,4-triazole-3-yl)thio)propane-1-ol], the IC50 in series [1] was 2.98 µM; in [17] it was 2.72 µM.
`CC(C)(c1ccc(Cl)cc1)c1nnc2n1N=C(c1ccc(OC(F)(F)F)cc1)CS2` [3-(2-(4-chlorophenyl)propane-2-yl)-6-(4-(trifluoromethoxy)phenyl)-7H-[1,2,4]triazolo[3,4-b] [1,3,4]thiadiazine]: the results for the IC50 in series [18] and in series [6] were 10.5 µM and 18.2 µM, respectively.
In the case of `COc1cc(C2=Nn3c(nnc3-c3ccccc3)SC2)cc(OC)c1OC` [3-phenyl-6-(3,4,5-trimethoxyphenyl)-7H-[1,2,4]triazolo[3,4-b][1,3,4]thiadiazine], the IC50 in [8] is 3.71 ± 0.13 µM; in series [9] it was 0.7 ± 0.04 µM; in series [10], 4.63 ± 0.09 µM; in series [11], 1.61 µM.
Turning to `CC(=O)Nc1ccc(OCC2=NNC(SCC(=O)Nc3ccc(Br)cc3)N2Cc2ccccc2)cc1` (stereo not shown) [2-[(3-{[4-(acetylamino)phenoxy]methyl}-4-benzyl-4,5-dihydro-1H-1,2,4-triazole-5-yl)sulfanyl]-N-(4-bromophenyl)acetamide], the IC50 in [19] is 7.71 µM.
For the compound `CC[C@]1(O)C[C@H]2CN(CCc3c([nH]c4ccccc34)[C@@](C(=O)OC)(c3cc4c(cc3OC)N(C=O)[C@H]3[C@@](O)(C(=O)OC)[C@H](OC(C)=O)[C@]5(CC)C=CCN6CC[C@]43[C@@H]65)C2)C1` [vincristine], in series [20], the inhibition (as a rule, the change of the read-out against control, counted positive when it falls) was 74.5%. The IC50 in series [21] and in series [22] was 1.03 ± 0.04 µM each time.
Regarding `OC(c1ccccc1)c1nnc(SCc2ccccc2)n1Cc1ccccc1` (stereo not shown) [4-Benzyl-3-(benzylthio)-5-[hydroxy(phenyl)methyl]-4H-1,2,4-triazole], the antiproliferative activity in [23] was 25-58%.
Consider `Fc1cc(-c2nnc3n2N=C(c2ccc(Cl)cc2)CS3)c(Cl)cc1Cl` [3-(2,4-Dichloro-5-fluorophenyl)-6-(4-chlorophenyl)-1,2,4-triazolo[3,4-b]-1,3,4-thiadiazine], for which, in series [24], the GI50 (in general, the concentration that inhibits growth by half) was 1.06 to 25.4 µM.
With `O=C(CSc1nnc2n1N=C(c1ccc(Cl)cc1)CS2)c1ccc(F)cc1` [2-((6-(4-Chlorophenyl)-7H-[1,2,4]triazolo[3,4-b][1,3,4]thiadiazine-3-yl)thio-1-(4-fluorophenyl)ethanone], the growth in series [25] is recorded as 49.82%; in [26], 48.14%.
With `Clc1ccc(C2=Nn3c(nnc3-c3cccnc3)SC2)cc1Cl` [6-(3,4-dichlorophenyl)-3-(pyridine-3-yl)-7H-[1,2,4]triazolo[3,4-b][1,3,4]thiadiazine], in series [21], the IC50 is 0.96 ± 0.43 µM.
Turning to `Cc1ccc(C(C)C)c(OCC2=NNC(SCC(=O)Nc3ccc(Cl)cc3)N2Cc2ccccc2)c1` (stereo not shown) [2-{[3-[[5-methyl-2-(propane-2-yl)phenoxy]methyl]-4-benzyl-4,5-dihydro-1H-1,2,4-triazole-5-yl]sulfanyl}-N-(4-chlorophenyl)acetamide], in series [27], the IC50 was 7.9 µM.
`Nn1c(S)nnc1-c1ccccc1Cl` [4-amino-5-mercapto-3-(2-chlorophenyl)-1,2,4-triazole]: the “tumor cell inhibition (TCI)” value in [28] is on record as 63.59%.
For the compound `CCc1cccc2c3c([nH]c12)C(CC)(Cc1n[nH]c(=S)n1C)OCC3` (stereo not shown) [5-[(1,8-Diethyl-1,3,4,9-tetrahydropyrano[3,4-b]indole-1-yl)methyl]-4-methyl-2,4-dihydro-3H-1,2,4-triazole-3-thione], the IC50 in [29] is 4.29 µM.
Regarding `CS(=O)(=O)c1ccc(Cc2nnc3n2N=C(c2ccc(-c4ccccc4)cc2)CS3)cc1` [6-(biphenyl-4-yl)-3-(4-(methylsulfonyl)benzyl)-7H-[1,2,4]triazolo[3,4-b][1,3,4]thiadiazine], the IC50 in series [30] is 12.5 µM.
Consider `Fc1cc(C2=Nn3c(COc4ccccc4Cl)nnc3SC2=Cc2ccc(Cl)cc2)c(Cl)cc1Cl` [7-(4-chlorobenzylidene)-6-(2,4-dichloro-5-fluorophenyl)-3-((2-chlorophenoxy)methyl)-1,2,4-triazolo[3,4-b]-1,3,4-thiadiazine], for which, in [31], the GI50 was under 10 µM.
